Results from PubChem BioAssay AID1159588 (Gregory J. Crowther, 2016).

target: Calcium-dependent protein kinase 4 (Plasmodium falciparum (isolate 3D7)) (UniProt Q8IBS5); assay: PfCDPK4 kinase inhibitors, biochemical, TCAMS library (AID 1159588); details: recombinant PfCDPK4, Kinase-Glo ATP depletion luminescence
Sequence (Q8IBS5 whole entry, looked up): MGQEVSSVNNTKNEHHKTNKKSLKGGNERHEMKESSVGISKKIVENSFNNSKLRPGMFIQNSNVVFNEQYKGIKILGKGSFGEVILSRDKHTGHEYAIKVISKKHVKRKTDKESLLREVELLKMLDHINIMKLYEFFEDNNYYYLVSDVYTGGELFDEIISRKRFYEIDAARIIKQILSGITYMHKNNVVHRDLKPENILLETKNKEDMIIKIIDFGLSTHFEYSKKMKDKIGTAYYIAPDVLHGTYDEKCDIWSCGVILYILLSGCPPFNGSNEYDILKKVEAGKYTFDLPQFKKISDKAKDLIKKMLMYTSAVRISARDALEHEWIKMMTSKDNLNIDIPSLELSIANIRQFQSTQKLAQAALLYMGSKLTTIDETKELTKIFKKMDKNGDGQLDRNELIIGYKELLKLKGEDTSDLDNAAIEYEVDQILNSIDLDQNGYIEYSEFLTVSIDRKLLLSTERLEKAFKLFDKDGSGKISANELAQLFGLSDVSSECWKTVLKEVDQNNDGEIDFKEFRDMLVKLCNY

IC50, active:
CCN(CC)CCNC(=O)c1ccc(N=Cc2c(O)[nH]c3ccc(S(=O)(=O)Cc4c(Cl)cccc4Cl)cc23)cc1 73 nM
CN1CCN(c2ccc(Nc3ncc(C#N)c(Nc4ccccc4C(N)=O)n3)cc2)CC1 188 nM
O=C(Nc1cccc(-c2nn3ncccc3c2-c2ccnc(Nc3ccccc3)n2)c1)c1c(F)cccc1F 352 nM
CCn1c(-c2nonc2N)nc2c(-c3cccc(NC(=O)Nc4ccccc4OC)c3)ncc(OCCCN)c21 706 nM
CCn1c(-c2nonc2N)nc2c(-c3cccc(NC(=O)Nc4ccc5c(c4)CCC5)c3)ncc(OCCCN)c21 59 nM
CC(=O)Nc1cccc(Nc2nccc(-c3c(-c4cccc(NC(=O)c5c(F)cccc5F)c4)nn4ncccc34)n2)c1 26 nM
COc1cc(Nc2nccc(-c3c(-c4cccc(NC(=O)c5c(F)cccc5F)c4)nn4ncccc34)n2)cc(OC)c1OC 45 nM
CC(c1cccc(Nc2nccc(-c3c(-c4cccc(NC(=O)c5c(F)cccc5F)c4)nn4ccccc34)n2)c1)S(C)(=O)=O (stereo not given) 90 nM
NS(=O)(=O)c1cccc(N=Cc2c(O)[nH]c3ccc(S(=O)(=O)Cc4c(Cl)cccc4Cl)cc23)c1 116 nM
O=C(Nc1ccccc1)Nc1cccc(-c2nn3c(OCCN4CCCC4)cccc3c2-c2ccncc2)c1 775 nM
NCC(NC(=O)c1ccc(-c2c[nH]c3ncccc23)s1)c1ccccc1 (stereo not given) 473 nM
CCn1c(-c2nonc2N)nc2c(-c3cccc(NC(=O)Nc4cccc(C(F)(F)F)c4)c3)ncc(OCCCN)c21 342 nM
COc1cc(Nc2nccc(-c3c(-c4cccc(NC(=O)c5c(F)cccc5F)c4)nn4ccccc34)n2)cc(OC)c1OC 77 nM
CCn1c(-c2nonc2N)nc2c(-c3cccc(NC(=O)Nc4cccc(C#N)c4)c3)ncc(OCCCN)c21 170 nM
Cc1cc(Nc2ncc(C#N)c(Nc3ccccc3C(N)=O)n2)ccc1N1CCN(C)CC1 89 nM
CCn1c(-c2nonc2N)nc2c(-c3cccc(NC(=O)Nc4ccccc4Cl)c3)ncc(OCCCN)c21 138 nM
Cn1cccc1C(=O)Nc1cccc(-c2nn3ccccc3c2-c2ccnc(Nc3ccc4c(c3)OCCO4)n2)c1 191 nM
CCn1c(-c2nonc2N)nc2c(-c3cccc(NC(=O)Nc4ccc(C#N)cc4)c3)ncc(OCCCN)c21 84 nM
CCn1c(-c2nonc2N)nc2c(-c3cccc(Cl)c3)ncc(OCCCNCc3cnc(C)nc3N)c21 145 nM
N#Cc1ccc(C(=O)Nc2cc(-c3cccc(O)c3)cc3[nH]ncc23)cc1 478 nM
COCCOc1ccc(Nc2nccc(-c3c(-c4cccc(NC(=O)c5c(F)cccc5F)c4)nn4ccccc34)n2)cc1Cl 853 nM
CCN(CC)CCCOc1ccc(Nc2nccc(-c3c(-c4cccc(NC(=O)c5c(F)cccc5F)c4)nn4ccccc34)n2)cc1F 86 nM
CCn1c(-c2nonc2N)nc2c(-c3cccc(NC(=O)NC45CC6CC(CC(C6)C4)C5)c3)ncc(OCCCN)c21 158 nM
Cc1cccc(Nc2nc(NCCCCN)nc3cc[nH]c(=O)c23)c1 166 nM
CCn1c(-c2nonc2N)nc2c(-c3cccc(NC(=O)Nc4cccc(Cl)c4)c3)ncc(OCCCN)c21 81 nM
CN1CCN(c2ccc(Nc3nccc(-c4c(-c5cccc(NC(=O)c6c(F)cccc6F)c5)nn5ccccc45)n3)cc2)CC1 75 nM
CCn1c(-c2nonc2N)nc2c(-c3cccc(Cl)c3)ncc(OCCCNCCc3cnc[nH]3)c21 46 nM
Cc1cccc(Nc2nc(N[C@@H]3CCCNC3)nc3cc[nH]c(=O)c23)c1 76 nM
CC(c1cccc(Nc2nccc(-c3c(-c4cccc(NC(=O)c5c(F)cccc5F)c4)nn4ncccc34)n2)c1)S(C)(=O)=O (stereo not given) 24 nM
CCn1c(-c2nonc2N)nc2c(-c3cccc(NC(=O)Nc4ccc(C(F)(F)F)cc4)c3)ncc(OCCCN)c21 30 nM
CS(=O)(=O)Cc1ccc(Nc2nccc(-c3c(-c4cccc(C(=O)Nc5c(F)cccc5F)c4)nn4ccccc34)n2)cc1 65 nM
CCn1c(-c2nonc2N)nc2c(-c3cc4ccccc4s3)ncc(C(=O)N3CCC(N)C3)c21 (stereo not given) 89 nM
CC(C)(CN)c1cc(-c2ccc(Cl)c(O)c2)c(-c2ccncc2)o1 433 nM
O=C(Nc1cccc(-c2nn3ccccc3c2-c2ccnc(Nc3ccc(C(=O)N4CCOCC4)cc3)n2)c1)c1c(F)cccc1F 311 nM
NS(=O)(=O)CCc1cccc(Nc2nccc(-c3c(-c4cccc(NC(=O)c5c(F)cccc5F)c4)nn4ccccc34)n2)c1 29 nM
NS(=O)(=O)c1cccc(Nc2nccc(-c3c(-c4cccc(NC(=O)c5c(F)cccc5F)c4)nn4ccccc34)n2)c1 51 nM
CCn1c(-c2nonc2N)nc2c(-c3ccccc3)ncc(OCCCCNCCc3ncc[nH]3)c21 43 nM
NS(=O)(=O)c1cccc(Nc2nc(N[C@@H]3CCNC3)nc3cc[nH]c(=O)c23)c1 135 nM
CCS(=O)(=O)c1ccc(OC)c(Nc2nccc(-c3c(-c4cccc(NC(=O)c5c(F)cccc5F)c4)nn4ncccc34)n2)c1 201 nM
Cc1[nH]c(/C=C2\C(=O)Nc3ccc(S(=O)(=O)Cc4c(Cl)cccc4Cl)cc32)c(C)c1C(=O)N1CCC[C@@H]1CN1CCCC1 21 nM
Cc1[nH]nc2ccc(-c3cc(OC[C@@H](N)Cc4ccccc4)cnc3-c3cc4ccccc4s3)cc12 563 nM
NC[C@H](CC1CCCCC1)NC(=O)c1ccc(-c2ccnc3[nH]ccc23)s1 527 nM
O=c1[nH]ccc2nc(N[C@@H]3CCNC3)nc(Nc3cc(Cl)cc(Cl)c3)c12 446 nM
CS(=O)(=O)Cc1ccc(Nc2nccc(-c3c(-c4cccc(NC(=O)c5c(F)cccc5F)c4)nn4ccccc34)n2)cc1 52 nM
CS(=O)(=O)Cc1ccc(Nc2nccc(-c3c(-c4cccc(NC(=O)C5CCCCC5)c4)nn4ncccc34)n2)cc1 67 nM
O=C(Nc1cccc(-c2nn3ccccc3c2-c2ccnc(Nc3cccc(-c4cnco4)c3)n2)c1)C1CCCCC1 612 nM
CNC(=O)c1ccccc1Nc1nc(Nc2ccc(CCN3CCN(C)CC3)cc2)ncc1Cl 361 nM
O=C(Nc1c(F)cccc1F)c1cccc(-c2nn3ccccc3c2-c2ccnc(Nc3cccc(-c4cnco4)c3)n2)c1 134 nM
O=C(NCC(c1ccc(C(F)(F)F)cc1)N1CCCC1)c1cc(-c2ccncc2)c(-c2cccc(O)c2)o1 (stereo not given) 178 nM
O=C(Nc1cccc(-c2nn3ccccc3c2-c2ccnc(Nc3ccc(-c4ccn[nH]4)cc3)n2)c1)c1c(F)cccc1F 307 nM
NCCCNc1nc(Nc2cccc(C(N)=O)c2)c2c(=O)[nH]ccc2n1 967 nM
Cc1csc(-c2ncc(OC[C@@H](N)Cc3ccccc3)cc2-c2ccc3n[nH]c(C)c3c2)c1 420 nM
CCn1c(-c2nonc2N)nc2c(-c3ccccc3)ncc(OCCCNCCCN3CCOCC3)c21 38 nM
O=C(Nc1cccc(-c2nn3ccccc3c2-c2ccnc(Nc3ccc(NCCCN4CCOCC4)c(F)c3)n2)c1)c1c(F)cccc1F 315 nM
O=C(Nc1cccc(-c2nn3ncccc3c2-c2ccnc(Nc3cccc(-c4cnco4)c3)n2)c1)c1c(F)cccc1F 145 nM
